Measurements taken from US6504058B1 (priority 1997, dated 2003).

What was measured:
[1] = tested on: Erysiphe graminis f. sp. tritici; assay: Test A: wheat powdery mildew, preventive spray on wheat seedlings, disease rating; assay type: in vivo, Erysiphe graminis f. sp. tritici (on wheat seedlings); settings: 200 ppm test suspension sprayed to run-off (equivalent to 500 g/ha) on wheat seedlings; 100 = 100% disease control, 0 = no control; # = significant activity
How it was run: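 Compounds at 200 ppm (acetone 3%, 250 ppm Trem 014 in water; equivalent to 500 g/ha) sprayed to run-off on wheat seedlings, inoculated with spore dust the following day. Plants held at 20° C. for 7 days, then rated 0–100% disease control relative to untreated controls.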

Puccinia recondita = assay: Test B: wheat leaf rust, preventive spray on wheat seedlings, disease rating; assay type: in vivo, Puccinia recondita (on wheat seedlings); settings: 200 ppm test suspension sprayed to run-off (equivalent to 500 g/ha) on wheat seedlings; 100 = 100% disease control, 0 = no control; # = significant activity
How it was run: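 Wheat seedlings were sprayed to run-off with 200 ppm suspensions (≈500 g/ha; 3% acetone, 250 ppm Trem 014) and inoculated with Puccinia recondita spores the next day. Plants were held 24 h saturated at 20 °C, then 6 days at 20 °C. Disease control was rated 0-100 relative to untreated controls.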

Pyricularia oryzae = assay type: in vivo, Pyricularia oryzae (on rice seedlings); settings: 200 ppm test suspension sprayed to run-off (equivalent to 500 g/ha) on rice seedlings; 100 = 100% disease control, 0 = no control; # = significant activity
Phytophthora infestans = assay type: in vivo, Phytophthora infestans (on tomato seedlings); settings: 200 ppm test suspension sprayed to run-off (equivalent to 500 g/ha) on tomato seedlings; 100 = 100% disease control, 0 = no control; # = significant activity
Botrytis cinerea = assay: Test E: gray mold, preventive spray on cucumber seedlings, disease rating; assay type: in vivo, Botrytis cinerea (on cucumber seedlings); settings: 200 ppm test suspension sprayed to run-off (equivalent to 500 g/ha) on cucumber seedlings; 100 = 100% disease control, 0 = no control; # = significant activity
How it was run: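 Cucumber seedlings sprayed to run-off with 200 ppm suspension (equivalent to 500 g/ha), inoculated next day with B. cinerea spores. Kept 48 h saturated at 20 °C, then 5 days in growth chamber at 20 °C; disease control rated 0–100 relative to controls.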

SMILES	Test A disease control rating (wheat powdery mildew) [1]	Test B disease control rating (wheat leaf rust) (Puccinia recondita)	Test C disease control rating (rice blast) (Pyricularia oryzae)	Test D disease control rating (potato and tomato late blight) (Phytophthora infestans)	Test E disease control rating (gray mold) (Botrytis cinerea)
CC(NC(=O)C1(C)CC(C)(Cl)C1)c1ccc(Cl)cc1Cl (stereo not shown) [compound 19]	33%	0 (a rating of 0 indicates no disease control (relative to the controls))	100# (a rating of 100 indicates 100% disease control)	0 (a rating of 0 indicates no disease control (relative to the controls))	0 (a rating of 0 indicates no disease control (relative to the controls))
CC(NC(=O)C1(C)CC(C)(Cl)C1)c1ccc(Br)cc1 (stereo not shown) [compound 13]	0 (a rating of 0 indicates no disease control (relative to the controls))	0 (a rating of 0 indicates no disease control (relative to the controls))	94# %	0 (a rating of 0 indicates no disease control (relative to the controls))	0 (a rating of 0 indicates no disease control (relative to the controls))
CC(NC(=O)C1(C)CC(Cl)(CCl)C1)c1ccc(Br)cc1 (stereo not shown) [compound 61]	0 (a rating of 0 indicates no disease control (relative to the controls))	0 (a rating of 0 indicates no disease control (relative to the controls))	100# (a rating of 100 indicates 100% disease control)	96# %	0 (a rating of 0 indicates no disease control (relative to the controls))
CC(NC(=O)C1(C)CC(C)(Br)C1)c1ccc(Br)cc1 (stereo not shown) [compound 17]	0 (a rating of 0 indicates no disease control (relative to the controls))	0 (a rating of 0 indicates no disease control (relative to the controls))	74%	0 (a rating of 0 indicates no disease control (relative to the controls))	0 (a rating of 0 indicates no disease control (relative to the controls))
CC(NC(=O)C1(C)CC(C)(Cl)C1)c1ccc(Cl)cc1Cl (stereo not shown) [compound 72]	91# %	0 (a rating of 0 indicates no disease control (relative to the controls))	99# %	66%	0 (a rating of 0 indicates no disease control (relative to the controls))
CC(COc1cc(F)ccc1F)NC(=O)C1(C)CC(C)(Cl)C1 (stereo not shown) [compound 29]	0 (a rating of 0 indicates no disease control (relative to the controls))	86# %	100# (a rating of 100 indicates 100% disease control)	0 (a rating of 0 indicates no disease control (relative to the controls))	0 (a rating of 0 indicates no disease control (relative to the controls))
CC(NC(=O)C1(C)CC(C)(Cl)C1)c1cccc2ccccc12 (stereo not shown) [compound 22]	0 (a rating of 0 indicates no disease control (relative to the controls))	0 (a rating of 0 indicates no disease control (relative to the controls))	0 (a rating of 0 indicates no disease control (relative to the controls))	0 (a rating of 0 indicates no disease control (relative to the controls))	0 (a rating of 0 indicates no disease control (relative to the controls))
CC(COc1cc(F)ccc1F)NC(=O)C1(C)CC(C)(Br)C1 (stereo not shown) [compound 57]	90# %	0 (a rating of 0 indicates no disease control (relative to the controls))	86# %	0 (a rating of 0 indicates no disease control (relative to the controls))	0 (a rating of 0 indicates no disease control (relative to the controls))
CC(COc1cc(Cl)ccc1F)NC(=O)C1(C)CC(C)(Cl)C1 (stereo not shown) [compound 51]	83# %	0 (a rating of 0 indicates no disease control (relative to the controls))	100# (a rating of 100 indicates 100% disease control)	0 (a rating of 0 indicates no disease control (relative to the controls))	0 (a rating of 0 indicates no disease control (relative to the controls))
CC(COc1cc(Cl)ccc1F)NC(=O)C1(C)CC(C)(Br)C1 (stereo not shown) [compound 53]	100# (a rating of 100 indicates 100% disease control)	0 (a rating of 0 indicates no disease control (relative to the controls))	100# (a rating of 100 indicates 100% disease control)	0 (a rating of 0 indicates no disease control (relative to the controls))	0 (a rating of 0 indicates no disease control (relative to the controls))
CC(COc1cc(F)ccc1C#N)NC(=O)C1(C)CC(C)(Cl)C1 (stereo not shown) [compound 44]	0 (a rating of 0 indicates no disease control (relative to the controls))	0 (a rating of 0 indicates no disease control (relative to the controls))	94# %	20%	84%
CC(NC(=O)C1(C)CC(C)(Br)C1)c1ccc(Cl)cc1Cl (stereo not shown) [compound 69]	0 (a rating of 0 indicates no disease control (relative to the controls))	0 (a rating of 0 indicates no disease control (relative to the controls))	100# (a rating of 100 indicates 100% disease control)	24%	0 (a rating of 0 indicates no disease control (relative to the controls))
CC(NC(=O)C1CC(C)(Cl)C1)C(Oc1ccccc1C#N)c1ccccc1 (stereo not shown) [compound 35]	0 (a rating of 0 indicates no disease control (relative to the controls))	0 (a rating of 0 indicates no disease control (relative to the controls))	86# %	0 (a rating of 0 indicates no disease control (relative to the controls))	0 (a rating of 0 indicates no disease control (relative to the controls))
CC(NC(=O)C1(C)CC(C)(Cl)C1)c1ccc(Br)cc1 (stereo not shown) [compound 14]	0 (a rating of 0 indicates no disease control (relative to the controls))	0 (a rating of 0 indicates no disease control (relative to the controls))	97# %	0 (a rating of 0 indicates no disease control (relative to the controls))	0 (a rating of 0 indicates no disease control (relative to the controls))
CC(NC(=O)C1(C)CC(Cl)(CCl)C1)c1ccc(Br)cc1 (stereo not shown) [compound 62]	0 (a rating of 0 indicates no disease control (relative to the controls))	0 (a rating of 0 indicates no disease control (relative to the controls))	97# %	84# %	0 (a rating of 0 indicates no disease control (relative to the controls))
CC(COc1ccc(Br)cc1C#N)NC(=O)C1(C)CC(C)(Cl)C1 (stereo not shown) [compound 37]	0 (a rating of 0 indicates no disease control (relative to the controls))	25%	0 (a rating of 0 indicates no disease control (relative to the controls))	23%	8%
CC(NC(=O)C1CC(C)(Cl)C1)C(Oc1cc(F)ccc1F)c1ccccc1 (stereo not shown) [compound 32]	59%	0 (a rating of 0 indicates no disease control (relative to the controls))	52%	0 (a rating of 0 indicates no disease control (relative to the controls))	0 (a rating of 0 indicates no disease control (relative to the controls))
